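Protocol summary: plate cells (96-well), add compound at 5 concentrations, incubate 48 h, interpolate endpoints linearly. GI50 = concentration required for 50% inhibition of growth.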 Active and inactive are the calls of the source. Rule as the data show it: active = GI50 up to about 1.1 µM and inactive = higher.
Legend:
Assay in all cases: inhibition of tumour cell growth, NCI panel, 48 h
[1] = test system: HCC 2998
[2] = test system: SK-MEL-28
[3] = test system: BT-549
[4] = test system: K562
[5] = test system: EKVX
[6] = test system: HT-29
[7] = test system: UO-31
[8] = test system: SN12C
[9] = test system: OVCAR-5
[10] = test system: HOP-62
[11] = test system: COLO 205
[12] = test system: LOX IMVI
[13] = test system: SW-620
[14] = test system: HL-60
[15] = test system: MDA-N
[16] = test system: MDA-MB-435
[17] = test system: DU-145
[18] = test system: Malme-3M
[19] = test system: TK-10
[20] = test system: NCI-H226
[21] = test system: SF-295
[22] = test system: SK-OV-3
[23] = test system: RXF 393
[24] = test system: UACC-62
[25] = test system: RPMI-8226
[26] = test system: M14
[27] = test system: U-251
[28] = test system: NCI/ADR-RES
[29] = test system: SK-MEL-5
[30] = test system: 786-0
[31] = test system: SF-268
[32] = test system: SNB-19
[33] = test system: Hs-578T
[34] = test system: ACHN
[35] = test system: MOLT-4
[36] = test system: CCRF-CEM
[37] = test system: HCT-15
[38] = test system: T47D
[39] = test system: PC-3
[40] = test system: IGROV-1
[41] = test system: HCT-116
[42] = test system: SF-539
[43] = test system: OVCAR-8
[44] = test system: OVCAR-3
[45] = test system: KM12
[46] = test system: MDA-MB-231
[47] = test system: NCI-H522
[48] = test system: A498
[49] = test system: SK-MEL-2
[50] = test system: NCI-H23
[51] = test system: MCF7
[52] = test system: UACC-257
[53] = test system: CAKI-1
[54] = test system: OVCAR-4
[55] = test system: NCI-H460
[56] = test system: A549
[57] = test system: HOP-92
[58] = test system: SNB-75
[59] = test system: SR

SMILES: CCN(CC)CCNc1n[n+]([O-])c2ccccc2[n+]1[O-]
- GI50 [1]: 2.07 µM (inactive)
- GI50 [2]: 39.4 µM (inactive)
- GI50 [3]: 16.4 µM (inactive)
- GI50 [4]: 1.72 µM (inactive)
- GI50 [5]: 12.7 µM (inactive)
- GI50 [6]: 5.94 µM (inactive)
- GI50 [7]: 19 µM (inactive)
- GI50 [8]: 3.91 µM (inactive)
- GI50 [9]: 13.2 µM (inactive)
- GI50 [10]: 5.11 µM (inactive)
- GI50 [11]: 5.96 µM (inactive)
- GI50 [12]: 9.86 µM (inactive)
- GI50 [13]: 12 µM (inactive)
- GI50 [14]: 1.85 µM (inactive)
- GI50 [15]: 9.73 µM (inactive)
- GI50 [16]: 12.5 µM (inactive)
- GI50 [17]: 12.1 µM (inactive)
- GI50 [18]: 6.76 µM (inactive)
- GI50 [19]: 11.3 µM (inactive)
- GI50 [20]: 7.21 µM (inactive)
- GI50 [21]: 7.93 µM (inactive)
- GI50 [22]: 4 µM (inactive)
- GI50 [23]: 4.65 µM (inactive)
- GI50 [24]: 4.8 µM (inactive)
- GI50 [25]: 4.48 µM (inactive)
- GI50 [26]: 6.7 µM (inactive)
- GI50 [27]: 12.8 µM (inactive)
- GI50 [28]: 22.9 µM (inactive)
- GI50 [29]: 1.59 µM (inactive)
- GI50 [30]: 7.85 µM (inactive)
- GI50 [31]: 10.7 µM (inactive)
- GI50 [32]: 13.5 µM (inactive)
- GI50 [33]: 28.6 µM (inactive)
- GI50 [34]: 2.95 µM (inactive)
- GI50 [35]: 2.02 µM (inactive)
- GI50 [36]: 3.91 µM (inactive)
- GI50 [37]: 3.92 µM
- GI50 [38]: 5.18 µM (inactive)
- GI50 [39]: 5.78 µM (inactive)
- GI50 [40]: 1.81 µM (inactive)
- GI50 [41]: 7.73 µM (inactive)
- GI50 [42]: 9.27 µM (inactive)
- GI50 [43]: 7.76 µM (inactive)
- GI50 [44]: 7.21 µM (inactive)
- GI50 [45]: 9.2 µM (inactive)

SMILES: N#Cc1ccccc1NC(=O)/C(=N\NC(=O)c1ccncc1)C(c1cnc2ccc([N+](=O)[O-])cc2n1)[N+](=O)[O-] (configuration not stated)
- GI50 [1]: > 100 µM (inactive)
- GI50 [2]: > 100 µM (inactive)
- GI50 [46]: > 100 µM (inactive)
- GI50 [3]: > 100 µM (inactive)
- GI50 [5]: 53.1 µM (inactive)
- GI50 [6]: > 100 µM (inactive)
- GI50 [7]: 32.1 µM (inactive)
- GI50 [47]: 33 µM (inactive)
- GI50 [8]: > 100 µM (inactive)
- GI50 [9]: > 100 µM (inactive)
- GI50 [10]: > 100 µM (inactive)
- GI50 [12]: 84.5 µM (inactive)
- GI50 [13]: > 100 µM (inactive)
- GI50 [14]: > 100 µM (inactive)
- GI50 [15]: > 100 µM (inactive)
- GI50 [16]: 74.8 µM (inactive)
- GI50 [18]: > 100 µM (inactive)
- GI50 [48]: > 100 µM (inactive)
- GI50 [19]: > 100 µM (inactive)
- GI50 [20]: > 100 µM (inactive)
- GI50 [49]: > 100 µM (inactive)
- GI50 [50]: > 100 µM (inactive)
- GI50 [51]: 80.2 µM (inactive)
- GI50 [52]: > 100 µM (inactive)
- GI50 [21]: > 100 µM (inactive)
- GI50 [22]: > 100 µM (inactive)
- GI50 [53]: > 100 µM (inactive)
- GI50 [23]: > 100 µM (inactive)
- GI50 [24]: > 100 µM (inactive)
- GI50 [25]: 49 µM (inactive)
- GI50 [26]: 67.6 µM (inactive)
- GI50 [54]: > 100 µM (inactive)
- GI50 [27]: > 100 µM (inactive)
- GI50 [55]: 64.6 µM (inactive)
- GI50 [28]: > 100 µM (inactive)
- GI50 [29]: 63.7 µM (inactive)
- GI50 [56]: 97.9 µM (inactive)
- GI50 [30]: > 100 µM (inactive)
- GI50 [31]: > 100 µM (inactive)
- GI50 [33]: > 100 µM (inactive)
- GI50 [34]: 28 µM (inactive)
- GI50 [35]: 80 µM (inactive)
- GI50 [36]: 56.4 µM (inactive)
- GI50 [37]: 78.3 µM
- GI50 [38]: > 100 µM (inactive)
- GI50 [39]: > 100 µM (inactive)
- GI50 [40]: 95.9 µM (inactive)
- GI50 [41]: > 100 µM (inactive)
- GI50 [42]: > 100 µM (inactive)
- GI50 [43]: > 100 µM (inactive)
- GI50 [57]: 86.9 µM (inactive)
- GI50 [44]: > 100 µM (inactive)
- GI50 [58]: > 100 µM (inactive)
- GI50 [45]: 39.9 µM (inactive)

SMILES: O=C1CCN2c3ccccc3[C@H]3Cc4cccc(c4[C@@H]2C3)CCO1
- GI50 [1]: > 100 µM (inactive)
- GI50 [2]: 56.4 µM (inactive)
- GI50 [46]: 83 µM (inactive)
- GI50 [59]: 26.1 µM (inactive)
- GI50 [3]: 57.8 µM (inactive)
- GI50 [4]: 21.8 µM (inactive)
- GI50 [5]: 38.5 µM (inactive)
- GI50 [6]: 36.6 µM (inactive)
- GI50 [7]: 22.9 µM (inactive)
- GI50 [47]: 28.4 µM (inactive)
- GI50 [8]: 16.3 µM (inactive)
- GI50 [9]: > 100 µM (inactive)
- GI50 [10]: 56.2 µM (inactive)
- GI50 [11]: 33.5 µM (inactive)
- GI50 [12]: 34.6 µM (inactive)
- GI50 [13]: 35.3 µM (inactive)
- GI50 [14]: 25.5 µM (inactive)
- GI50 [15]: 26.2 µM (inactive)
- GI50 [16]: 40.4 µM (inactive)
- GI50 [17]: 68.4 µM (inactive)
- GI50 [18]: 25.2 µM (inactive)
- GI50 [48]: 56.5 µM (inactive)
- GI50 [19]: 65.6 µM (inactive)
- GI50 [20]: 32.9 µM (inactive)
- GI50 [49]: 38 µM (inactive)
- GI50 [50]: 35.3 µM (inactive)
- GI50 [51]: 41.5 µM (inactive)
- GI50 [52]: 29.4 µM (inactive)
- GI50 [21]: 32.4 µM (inactive)
- GI50 [22]: 51.2 µM (inactive)
- GI50 [53]: 41.9 µM (inactive)
- GI50 [23]: 47.4 µM (inactive)
- GI50 [24]: 43.5 µM (inactive)
- GI50 [25]: 31 µM (inactive)
- GI50 [26]: 19.4 µM (inactive)
- GI50 [54]: 57.1 µM (inactive)
- GI50 [27]: 40.5 µM (inactive)
- GI50 [55]: > 100 µM (inactive)
- GI50 [28]: 23.6 µM (inactive)
- GI50 [29]: 22.1 µM (inactive)
- GI50 [56]: 33.9 µM (inactive)
- GI50 [30]: 41.8 µM (inactive)
- GI50 [31]: 72.4 µM (inactive)
- GI50 [32]: 86.9 µM (inactive)
- GI50 [34]: 44 µM (inactive)
- GI50 [35]: 20.3 µM (inactive)
- GI50 [36]: 28.8 µM (inactive)
- GI50 [37]: 26.9 µM
- GI50 [38]: 36.7 µM (inactive)
- GI50 [39]: 32 µM (inactive)
- GI50 [40]: 22 µM (inactive)
- GI50 [41]: 21.6 µM (inactive)
- GI50 [42]: 79.3 µM (inactive)
- GI50 [43]: 31.7 µM (inactive)
- GI50 [57]: 31 µM (inactive)
- GI50 [44]: 26.5 µM (inactive)
- GI50 [58]: 27.4 µM (inactive)
- GI50 [45]: 34.9 µM (inactive)
